Our source for the IC50 values is US10239840B2, “Benzoazepine derivatives” (ViiV HEALTHCARE UK LIMITED, priority 2015, dated 2019).

The test concerns HIV. Description: MT4 assay, antiviral HIV activity. To be noted: MT-4 cells (HTLV-1 transformed), read-out at 96 hours with cell titer glo. It counts as cell-based. The procedure: Antiviral HIV activity and cytotoxicity values for compounds of the invention from Table 1 were measured in parallel in the HTLV-1 transformed cell line MT-4 based on the method previously described (Hazen et al., 2007, In vitro antiviral activity of the novel, tyrosyl-based human immunodeficiency virus (HIV) type 1 protease inhibitor brecanavir (GW640385) in combination with other antiretrovirals and against a panel of protease inhibitor-resistant HIV (Hazen et al., “In vitro antiviral activity of the novel, tyrosyl-based human immunodeficiency virus (HIV) type 1 protease inhibitor brecanavir (GW640385) in combination with other antiretrovirals and against a panel of protease inhibitor-resistant HIV”, Antimicrob. Agents Chemother. 2007, 51: 3147-3154; and Pauwels et al., “Sensitive and rapid assay on MT-4 cells for the detection of antiviral compounds against the AIDS virus”, J. of Virological Methods 1987, 16: 171-185).
Luciferase activity was measured 96 hours later by adding a cell titer glo (Promega, Madison, Wis.). Percent inhibition of cell protection data was plotted relative to no compound control. Under the same condition, cytotoxicity of the compounds was determined using cell titer Glo™ (Promega, Madison, Wis.). IC50s were determined from a 10 point dose response curve using 3-4-fold serial dilution for each compound, which spans a concentration range >1000 fold.
These values are plotted against the molar compound concentrations using the standard four parameter logistic equation: y=((Vmax*x^n)/(K^n+x^n)+Y2
Y2=minimum γ n=slope factor
Vmax=maximum γ x=compound concentration [M]

For `Cc1c(-c2c(C)c3c(c(C)c2[C@H](OC(C)(C)C)C(=O)O)CCN(C(=O)CC(C)(C)C)CC3)cc(F)c2c1CCCO2` (atropisomer, axis not shown; (M)) [Example 6, (S)-2-(tert-butoxy)-2-((M)-3-(3,3-dimethylbutanoyl)-8-(8-fluoro-5-methylchroman-6-yl)-6,9-dimethyl-2,3,4,5-tetrahydro-1H-benzo[d]azepin-7-yl)acetic Acid], the IC50 (as a rule, the concentration that inhibits the measured activity by half) is 60 nM. The result for `Cc1c(-c2c(C)c3c(c(C)c2[C@H](OC(C)(C)C)C(=O)O)CCN(C(=O)N2CCCCC2)CC3)cc(F)c2c1CCCO2` (atropisomer, axis not shown; (M)) [Example 22, (2S)-2-(tert-butoxy)-2-((M)-8-(8-fluoro-5-methylchroman-6-yl)-6,9-dimethyl-3-(piperidine-1-carbonyl)-2,3,4,5-tetrahydro-1H-benzo[d]azepin-7-yl)acetic Acid] reads 9 nM. On to `COc1c(F)cccc1C(=O)N1CCc2c(C)c(-c3cc(F)c4c(c3C)CCCO4)c([C@H](OC(C)(C)C)C(=O)O)c(C)c2CC1` (atropisomer, axis not shown; (M)) [Example 10, (S)-2-(tert-butoxy)-2-((M)-3-(3-fluoro-2-methoxybenzoyl)-8-(8-fluoro-5-methylchroman-6-yl)-6,9-dimethyl-2,3,4,5-tetrahydro-1H-benzo[d]azepin-7-yl)acetic Acid], for which the IC50 amounted to 5 nM. The result for `Cc1c(-c2c(C)c3c(c(C)c2[C@H](OC(C)(C)C)C(=O)O)CCN(CC2CCCCC2)CC3)cc(F)c2c1CCCO2` (atropisomer, axis not shown; (M)) [Example 17, (S)-2-(tert-butoxy)-2-((M)-3-(cyclohexylmethyl)-8-(8-fluoro-5-methylchroman-6-yl)-6,9-dimethyl-2,3,4,5-tetrahydro-1H-benzo[d]azepin-7-yl)acetic Acid] reads 10 nM. Under `Cc1ccc(-c2c(C)c3c(c(C)c2[C@H](OC(C)(C)C)C(=O)O)CCN(C(=O)c2cccc(F)c2)CC3)cc1` [Example 4, (S)-2-(tert-butoxy)-2-(3-(3-fluorobenzoyl)-6,9-dimethyl-8-(p-tolyl)-2,3,4,5-tetrahydro-1H-benzo[d]azepin-7-yl)acetic Acid] stands 34 nM; under `Cc1c(-c2c(C)c3c(c(C)c2[C@H](OC(C)(C)C)C(=O)O)CCN(C(=O)C(=O)N2CCCCC2)CC3)cc(F)c2c1CCCO2` (atropisomer, axis not shown; (M)) [Example 14, (S)-2-(tert-butoxy)-2-((M)-8-(8-fluoro-5-methylchroman-6-yl)-6,9-dimethyl-3-(2-oxo-2-(piperidin-1-yl)acetyl)-2,3,4,5-tetrahydro-1H-benzo[d]azepin-7-yl)acetic Acid], 17 nM. `Cc1c(-c2c(C)c3c(c(C)c2[C@H](OC(C)(C)C)C(=O)O)CCN(C(=O)C2CCCCC2)CC3)cc(F)c2c1CCCO2` (atropisomer, axis not shown; (M)) [Example 12, (S)-2-(tert-butoxy)-2-((M)-3-(cyclohexanecarbonyl)-8-(8-fluoro-5-methylchroman-6-yl)-6,9-dimethyl-2,3,4,5-tetrahydro-1H-benzo[d]azepin-7-yl)acetic Acid]: the IC50 was found to be 19 nM. The result for `Cc1c(-c2c(C)c3c(c(C)c2[C@H](OC(C)(C)C)C(=O)O)CCN(C(=O)c2cccc4c2OCC4)CC3)cc(F)c2c1CCCO2` (atropisomer, axis not shown; (M)) [Example 11, (S)-2-(tert-butoxy)-2-((M)-3-(2,3-dihydrobenzofuran-7-carbonyl)-8-(8-fluoro-5-methylchroman-6-yl)-6,9-dimethyl-2,3,4,5-tetrahydro-1H-benzo[d]azepin-7-yl)acetic Acid] reads 9 nM; that for `Cc1c2c(c(C)c([C@H](OC(C)(C)C)C(=O)O)c1-c1ccccc1)CCN(C(=O)c1cccc(F)c1)CC2` [Example 3, (S)-2-(tert-butoxy)-2-(3-(3-fluorobenzoyl)-6,9-dimethyl-8-phenyl-2,3,4,5-tetrahydro-1H-benzo[d]azepin-7-yl)acetic Acid], 219 nM; that for `Cc1c(-c2c(C)c3c(c(C)c2[C@H](OC(C)(C)C)C(=O)O)CCN(S(=O)(=O)C2CCCCC2)CC3)cc(F)c2c1CCCO2` (atropisomer, axis not shown; (M)) [Example 20, (2S)-2-(tert-butoxy)-2-((M)-3-(cyclohexylsulfonyl)-8-(8-fluoro-5-methylchroman-6-yl)-6,9-dimethyl-2,3,4,5-tetrahydro-1H-benzo[d]azepin-7-yl)acetic Acid], 42 nM. Under `Cc1c(-c2c(C)c3c(c(C)c2[C@H](OC(C)(C)C)C(=O)O)CCN(C(=O)c2cccc(F)c2)CC3)cc(F)c2c1CCCO2` (atropisomer, axis not shown; (M)) [Example 5, (2S)-2-(tert-butoxy)-2-((M)-8-(8-fluoro-5-methylchroman-6-yl)-3-(3-fluorobenzoyl)-6,9-dimethyl-2,3,4,5-tetrahydro-1H-benzo[d]azepin-7-yl)acetic Acid] stands 5 nM. Under `Cc1c(-c2c(C)c3c(c(C)c2[C@H](OC(C)(C)C)C(=O)O)CCN(c2ccccc2)CC3)cc(F)c2c1CCCO2` (atropisomer, axis not shown; (M)) [Example 19, (2S)-2-(tert-butoxy)-2-((M)-8-(8-fluoro-5-methylchroman-6-yl)-6,9-dimethyl-3-phenyl-2,3,4,5-tetrahydro-1H-benzo[d]azepin-7-yl)acetic Acid] stands 92 nM; under `COc1ccc(-c2c(C)c3c(c(C)c2[C@H](OC(C)(C)C)C(=O)O)CCN(C(=O)c2cccc(F)c2)CC3)cc1` [Example 2, (S)-2-(tert-butoxy)-2-(3-(3-fluorobenzoyl)-8-(4-methoxyphenyl)-6,9-dimethyl-2,3,4,5-tetrahydro-1H-benzo[d]azepin-7-yl)acetic Acid], 76 nM. `COc1ccc(C)cc1C(=O)N1CCc2c(C)c(-c3cc(F)c4c(c3C)CCCO4)c([C@H](OC(C)(C)C)C(=O)O)c(C)c2CC1` (atropisomer, axis not shown; (M)) [Example 8, (S)-2-(tert-butoxy)-2-((M)-8-(8-fluoro-5-methylchroman-6-yl)-3-(2-methoxy-5-methylbenzoyl)-6,9-dimethyl-2,3,4,5-tetrahydro-1H-benzo[d]azepin-7-yl)acetic Acid]: the IC50 came to 4 nM. Under `Cc1c(-c2c(C)c3c(c(C)c2[C@H](OC(C)(C)C)C(=O)O)CCN(CCC2CCCCC2)CC3)cc(F)c2c1CCCO2` (atropisomer, axis not shown; (M)) [Example 16, (2S)-2-(tert-butoxy)-2-((M)-3-(2-cyclohexylethyl)-8-(8-fluoro-5-methylchroman-6-yl)-6,9-dimethyl-2,3,4,5-tetrahydro-1H-benzo[d]azepin-7-yl)acetic Acid] stands 13 nM; under `COc1ccc(F)cc1C(=O)N1CCc2c(C)c(-c3cc(F)c4c(c3C)CCCO4)c([C@H](OC(C)(C)C)C(=O)O)c(C)c2CC1` (atropisomer, axis not shown; (M)) [Example 7, (S)-2-(tert-butoxy)-2-((M)-3-(5-fluoro-2-methoxybenzoyl)-8-(8-fluoro-5-methylchroman-6-yl)-6,9-dimethyl-2,3,4,5-tetrahydro-1H-benzo[d]azepin-7-yl)acetic Acid], 5 nM. For the compound `Cc1c(-c2c(C)c3c(c(C)c2[C@H](OC(C)(C)C)C(=O)O)CCN(C(=O)c2cccc(F)c2)CC3)cc(Cl)c2c1CCCO2` (atropisomer, axis not shown; (M)) [Example 1, (S)-2-(tert-butoxy)-2-((M)-8-(8-chloro-5-methylchroman-6-yl)-3-(3-fluorobenzoyl)-6,9-dimethyl-2,3,4,5-tetrahydro-1H-benzo[d]azepin-7-yl)acetic Acid], the IC50 was 27 nM. Consider `Cc1c(-c2c(C)c3c(c(C)c2[C@H](OC(C)(C)C)C(=O)O)CCN(C2CCCCC2)CC3)cc(F)c2c1CCCO2` (atropisomer, axis not shown; (M)) [Example 18, (2S)-2-(tert-butoxy)-2-((M)-3-cyclohexyl-8-(8-fluoro-5-methylchroman-6-yl)-6,9-dimethyl-2,3,4,5-tetrahydro-1H-benzo[d]azepin-7-yl)acetic Acid], for which the IC50 worked out at 13 nM. The result for `COc1ccc(C(=O)N2CCc3c(C)c(-c4cc(F)c5c(c4C)CCCO5)c([C@H](OC(C)(C)C)C(=O)O)c(C)c3CC2)cc1C` (atropisomer, axis not shown; (M)) [Example 9, (S)-2-(tert-butoxy)-2-((M)-8-(8-fluoro-5-methylchroman-6-yl)-3-(4-methoxy-3-methylbenzoyl)-6,9-dimethyl-2,3,4,5-tetrahydro-1H-benzo[d]azepin-7-yl)acetic Acid] reads 14 nM; that for `Cc1c(-c2c(C)c3c(c(C)c2[C@H](OC(C)(C)C)C(=O)O)CCN(S(=O)(=O)N2CCCCC2)CC3)cc(F)c2c1CCCO2` (atropisomer, axis not shown; (M)) [Example 21, (2S)-2-(tert-butoxy)-2-((M)-8-(8-fluoro-5-methylchroman-6-yl)-6,9-dimethyl-3-(piperidin-1-ylsulfonyl)-2,3,4,5-tetrahydro-1H-benzo[d]azepin-7-yl)acetic Acid], 8 nM.
